Source: US20230055568A1, “THERAPEUTIC AGENT FOR MYALGIC ENCEPHALOMYELITIS/CHRONIC FATIGUE SYNDROME” (MITSUBISHI TANABE PHARMA CORPORATION, priority 2020, published 2023)
Entries after “also recorded” stand apart in the source; their conditions may differ.

Tested on: water-immersion stress loaded rat (fatigue rat) model
Test: weight-loaded forced swimming test in ME/CFS animal model (water-immersion stress loaded fatigue rat)
Assay type: in vivo
Settings: Slc:SD fatigue rat, compared to fatigue control group, hydrochloride
From the text: A […] encephalomyelitis/chronic fatigue syndrome (ME/CFS)-improving effect by the administration of the compound (amiselimod hydrochloride) relating to the present invention was verified as follows according to the method of Tanaka et al. (Establishment and assessment of a rat model fatigue. Neuroscience letters 2003, 352: 159-162) using a water-immersion stress loaded rat (fatigue rat) model. The animal used was 9-week-old Slc:SD rat. The rats were bred (water-immersion breeding) for 6 days in a plastic cage (W: 445×D: 276×H: 204 mm) containing tap water (water temperature: 23±1° C.) to a height of 1.5 cm, and a weight-loaded forced swimming test was conducted. on the final day. In the weight-loaded forced swimming test, a rat with a weight equivalent to 8% of its body weight attached to its tail was placed in a circular water tank (diameter: 18 cm, height: 70 cm, water depth: 40 cm, water temperature: 23±1° C.), and the time from the start of swimming until the rat's nose sinks from the water surface for 20 seconds was measured. The weight-loaded forced swimming test was conducted blindly. Amiselimod hydrochloride (0.1, 0.3 and 1 mg/kg administration) was orally administered once a day for 6 days from the start date of the water-immersion breeding. As control groups, a normal control group for normal breeding and a fatigue control group for water-immersion breeding were set, and the vehicle (0.5% HPMC) was administered to both groups. The number of cases was 10 in each group.

Structure (SMILES): CCCCCCCOc1ccc(CCC(N)(CO)CO)cc1C(F)(F)F.Cl [amiselimod hydrochloride, 2-amino-2-[2-(4-heptyloxy-3-trifluoromethylphenyl)ethyl]propane-1,3-diol hydrochloride]
- swimming time in weight-loaded forced swimming test (0.1 mg/kg orally once a day for 6 days, 0.1 mg/kg): significant difference was observed; also recorded: significantly prolonged the swimming time
- swimming time in weight-loaded forced swimming test (0.3 mg/kg orally once a day for 6 days, 0.3 mg/kg): significant difference was observed; also recorded: significantly prolonged the swimming time
- swimming time in weight-loaded forced swimming test (1 mg/kg orally once a day for 6 days, 1 mg/kg): significant difference was observed; also recorded: significantly prolonged the swimming time
